Legend:
Format in all cases: in vivo
Conditions in all cases: 250 g/ha, evaluated after 13 days
[1] = test system: Amaranthus retoflexus (AMARE); assay: Pre-emergence herbicide glasshouse test
Method: (§1) Seeds of a variety of test species are sown in standard soil in pots Amaranthus palmeri (AMAPA), Amaranthus retoflexus (AMARE), Echinochloa crus-galli (ECHCG), Ipomoea hederacea (IPOHE)). After cultivation for one day (pre-emergence) or after 8 days cultivation (post-emergence) under controlled conditions in a glasshouse (at 24/16° C., day/night; 14 hours light; 65% humidity), the plants are sprayed with an aqueous spray solution derived from the formulation of the technical active ingredient in acetone/water (50:50) solution containing 0.5% Tween 20 (polyoxyethelyene sorbitan monolaurate, CAS RN 9005-64-5). Compounds are applied at 250 g/ha unless otherwise stated. The test plants are then grown in a glasshouse under controlled conditions in a glasshouse (at 24/16° C., day/night; 14 hours light; 65% humidity) and watered twice daily. After 13 days for pre and post-emergence, the test is evaluated for the percentage damage caused to the plant. The biological activities are shown in the following table on a five-point scale (5=81-100%; 4=61-80%; 3=41-60%; 2=21-40%; 1=0-20%).

[2] = test system: Amaranthus palmeri (AMAPA); assay: Pre-emergence herbicide glasshouse test
Method: as §1

[3] = test system: Echinochloa crus-galli (ECHCG); assay: Pre-emergence herbicide glasshouse test
Method: as §1

[4] = test system: Ipomoea hederacea (IPOHE); assay: Pre-emergence herbicide glasshouse test
Method: as §1

[5] = test system: Amaranthus retoflexus (AMARE); assay: Post-emergence herbicide glasshouse test
Method: as §1

[6] = test system: Amaranthus palmeri (AMAPA); assay: Post-emergence herbicide glasshouse test
Method: as §1

[7] = test system: Echinochloa crus-galli (ECHCG); assay: Post-emergence herbicide glasshouse test
Method: as §1

[8] = test system: Ipomoea hederacea (IPOHE); assay: Post-emergence herbicide glasshouse test
Method: as §1

| SMILES | percentage damage caused to the plant, AMARE (five-point scale) [1] | percentage damage caused to the plant, AMAPA (five-point scale) [2] | percentage damage caused to the plant, ECHCG (five-point scale) [3] | percentage damage caused to the plant, IPOHE (five-point scale) [4] | percentage damage caused to the plant, AMARE (five-point scale) [5] | percentage damage caused to the plant, AMAPA (five-point scale) [6] | percentage damage caused to the plant, ECHCG (five-point scale) [7] | percentage damage caused to the plant, IPOHE (five-point scale) [8] |
| --- | --- | --- | --- | --- | --- | --- | --- | --- |
| Cn1cc(Cn2cc(C(F)(F)F)nc2-c2ccc(C(F)(F)F)cc2)c(C(F)(F)F)n1 [Compound 1.014] | 1 (1=0-20%) | 1 (1=0-20%) | 1 (1=0-20%) | 1 (1=0-20%) | 1 (1=0-20%) | 1 (1=0-20%) | 1 (1=0-20%) | 1 (1=0-20%) |
| Cn1cnc(Cn2cc(C(F)F)nc2-c2cnc(Cl)c(F)c2)n1 [Compound 1.015, 2-chloro-5-[4-(difluoromethyl)-1-[(1-methyl-1,2,4-triazol-3-yl)methyl]imidazol-2-yl]-3-fluoro-pyridine] | 5 (5=81-100%) | 5 (5=81-100%) | 4 (4=61-80%) | 5 (5=81-100%) | 5 (5=81-100%) | 5 (5=81-100%) | 3 (3=41-60%) | 5 (5=81-100%) |
| Cc1nnc(Cn2cc(C(F)F)nc2-c2cnc(Cl)c(F)c2)s1 [Compound 1.016] | 5 (5=81-100%) | 4 (4=61-80%) | 1 (1=0-20%) | 1 (1=0-20%) | 1 (1=0-20%) | 1 (1=0-20%) | 1 (1=0-20%) | 1 (1=0-20%) |
| Cc1nnc(Cn2cc(C(F)(F)F)nc2-c2cnc(Cl)c(F)c2)s1 [Compound 1.017] | 5 (5=81-100%) | 5 (5=81-100%) | 4 (4=61-80%) | 5 (5=81-100%) | 5 (5=81-100%) | 5 (5=81-100%) | 2 (2=21-40%) | 1 (1=0-20%) |
| Cn1cnc(Cn2cc(C(F)(F)F)nc2-c2cnc(Cl)c(F)c2)n1 [Compound 1.018] | 5 (5=81-100%) | 5 (5=81-100%) | 5 (5=81-100%) | 5 (5=81-100%) | 5 (5=81-100%) | 5 (5=81-100%) | 5 (5=81-100%) | 4 (4=61-80%) |
| Cn1cnc(Cn2cc(C(F)(F)F)nc2-c2ccc(F)c(F)c2)n1 [Compound 1.020] | 5 (5=81-100%) | 5 (5=81-100%) | 5 (5=81-100%) | 5 (5=81-100%) | 5 (5=81-100%) | 5 (5=81-100%) | 5 (5=81-100%) | 4 (4=61-80%) |
| Cc1nnc(Cn2cc(C(F)(F)F)nc2-c2ccc(F)c(F)c2)s1 [Compound 1.021] | 5 (5=81-100%) | 5 (5=81-100%) | 5 (5=81-100%) | 5 (5=81-100%) | 5 (5=81-100%) | 5 (5=81-100%) | 4 (4=61-80%) | 4 (4=61-80%) |
| Cc1cc(Cn2cc(C(F)F)nc2-c2cnc(Cl)c(F)c2)no1 [Compound 1.024] | 5 (5=81-100%) | 5 (5=81-100%) | 4 (4=61-80%) | 5 (5=81-100%) | 5 (5=81-100%) | 5 (5=81-100%) | 2 (2=21-40%) | 4 (4=61-80%) |
| Cc1cc(Cn2cc(C(F)(F)F)nc2-c2cnc(Cl)c(F)c2)no1 [Compound 1.025] | 5 (5=81-100%) | 5 (5=81-100%) | 4 (4=61-80%) | 4 (4=61-80%) | 5 (5=81-100%) | 4 (4=61-80%) | 4 (4=61-80%) | 2 (2=21-40%) |
| Cn1ccc(Cn2cc(C(F)(F)F)nc2-c2cnc(Cl)c(F)c2)n1 [Compound 1.026] | 5 (5=81-100%) | 5 (5=81-100%) | 4 (4=61-80%) | 5 (5=81-100%) | 4 (4=61-80%) | 4 (4=61-80%) | 3 (3=41-60%) | 4 (4=61-80%) |
| Cc1cc(Cn2cc(C(F)(F)F)nc2-c2cnc(Cl)c(F)c2)ns1 [Compound 1.027] | 5 (5=81-100%) | 5 (5=81-100%) | 3 (3=41-60%) | 4 (4=61-80%) | 4 (4=61-80%) | 4 (4=61-80%) | 4 (4=61-80%) | 4 (4=61-80%) |
| Fc1cc(-c2nc(C(F)(F)F)cn2Cc2cc(C3CC3)on2)cnc1Cl [Compound 1.028] | 5 (5=81-100%) | 5 (5=81-100%) | 1 (1=0-20%) | 4 (4=61-80%) | 4 (4=61-80%) | 3 (3=41-60%) | 1 (1=0-20%) | 1 (1=0-20%) |
| Cc1cnc(Cn2cc(C(F)(F)F)nc2-c2ccc(Cl)nc2)s1 [Compound 1.034] | 5 (5=81-100%) | 5 (5=81-100%) | 5 (5=81-100%) | 5 (5=81-100%) | 5 (5=81-100%) | 5 (5=81-100%) | 5 (5=81-100%) | 4 (4=61-80%) |

— US20260125360A1, “HERBICIDAL IMIDAZOLE COMPOUNDS” (SYNGENTA CROP PROTECTION AG, priority 2022, published 2026)
